Molecules are shown by their SMILES.

Among the data in patent US10052293B2, “Curcumin infused milk beverage and a process for the preparation thereof” (priority 2016, dated 2018) are pH and water solubility values, retold here.

Data set [1] can be described thus: pH of Curcumin dissolved in water. The data set is classed as physicochemical. The protocol: The prior art as described in above paragraphs clearly points that Curcumin is unstable in an alkaline solution and loses its golden yellow colour above a pH of 7.5. When pure Curcumin (95%) is dissolved in water, it gives a pH of 6.1. Even at a concentration of 30% solution of Curcumin, prepared by 30 gms of Curcumin in 70 gm hot water, kept in water bath at 55 degrees Celsius for 10 minutes and cooled to 25 degrees Celsius, it has an acidic pH. This Acidic pH of Curcumin is not suitable for making flavoured milk products. Any ingredient having pH less than 6.4 adversely affect milk proteins. The present invention solves this problem by optimizing the exact pH of Curcumin infused milk beverage so that the properties of beverage are preserved and good dispersibility and stability of Curcumin is obtained in the final composition.

Data set [2] can be described thus: Water solubility of Curcumin. The format is physicochemical. To be noted: 95% pure Curcumin. The protocol: The particle size of the Curcumin is about 125 micrometers and 95% of Curcumin can pass through 125 micrometers sieve and rest 5% is larger than 125 micrometers. In the final product, the Curcumin concentration is kept at a low concentration of 0.05% (wt/wt percentage for a batch). The concentration of Curcumin can go up to 0.15%. (wt/wt percentage for a batch) for particular milk beverage products. Thus, in an exemplary situation a 160 ml package of this milk beverage has approximately 80 mg of Curcumin and which can go up to 240 mg as required for ingestion.

For the compound `COc1cc(/C=C/C(=O)CC(=O)/C=C/c2ccc(O)c(OC)c2)ccc1O` [Curcumin, diferuloylmethane], the pH result in data set [1] (30% solution: 30 gms Curcumin in 70 gm hot water, 55 degrees Celsius 10 minutes, cooled to 25 degrees Celsius) was “acidic pH”; in data set [1] (pure Curcumin (95%) dissolved in water) it was 6.1. The water solubility entry in data set [2] is “water insoluble”.
